± gives the expanded uncertainty stated by the source.
Assay: Molar enthalpy of transition or fusion

## N.NS(=O)(=O)O [ammonium sulfamate]
Crystal 1, DSC
  Molar enthalpy of transition or fusion: 3.87 ± 0.191 kcal/mol
Crystal 2, Adiabatic calorimetry
  Molar enthalpy of transition or fusion: 0.00287 ± 0.00191 kcal/mol

Reference: the NIST ThermoML archive (doi:10.1016/j.jct.2019.01.021)
